Measurements from ChEMBL document CHEMBL3217490, “An approach to enzyme inhibition employing reversible boronate ester formation” (Medchemcomm, 2011).
The source made the active and inactive calls. No cut-off for these calls is given here.

How the values were obtained:
[1] = Inhibition of alpha-chymotrypsin (unknown origin); set-up: species or system Homo sapiens
[2] = Inhibition of Escherichia coli beta-lactamase AmpC
[3] = Dissociation constant, pKa of the compound; assay type: physicochemical
Homo sapiens [4] = organism: Homo sapiens; experiment: Binding affinity to alpha-chymotrypsin (unknown origin) at 1 mM at pH 5.8 by 11B-NMR analysis in presence of D-fructose
Homo sapiens [5] = organism: Homo sapiens; experiment: Binding affinity to alpha-chymotrypsin (unknown origin) at 5 mM by [1H] waterLOGSY NMR analysis in presence of D-fructose
Homo sapiens [6] = organism: Homo sapiens; experiment: Binding affinity to alpha-chymotrypsin (unknown origin) at 5 mM by [1H] waterLOGSY NMR analysis in presence of L-fructose
Homo sapiens [7] = organism: Homo sapiens; experiment: Binding affinity to alpha-chymotrypsin (unknown origin) at 1 mM at pH 5.8 by 11B-NMR analysis
Homo sapiens [8] = organism: Homo sapiens; experiment: Inhibition of alpha-chymotrypsin (unknown origin) using succinyl-Ala-Ala-Pro-Phe-para-nitroanilide as substrate assessed as residual activity at 25 uM after 10 mins in presence of D-fructose relative to control
Homo sapiens [9] = organism: Homo sapiens; experiment: Inhibition of alpha-chymotrypsin (unknown origin) using succinyl-Ala-Ala-Pro-Phe-para-nitroanilide as substrate assessed as residual activity at 25 uM after 10 mins in presence of D-glucose relative to control
Homo sapiens [10] = organism: Homo sapiens; experiment: Inhibition of alpha-chymotrypsin (unknown origin) using succinyl-Ala-Ala-Pro-Phe-para-nitroanilide as substrate assessed as residual activity at 25 uM after 10 mins in presence of L-glucose relative to control
Homo sapiens [11] = organism: Homo sapiens; experiment: Inhibition of alpha-chymotrypsin (unknown origin) using succinyl-Ala-Ala-Pro-Phe-para-nitroanilide as substrate assessed as residual activity at 25 uM after 10 mins in presence of L-fructose relative to control
Homo sapiens [12] = organism: Homo sapiens; experiment: Binding affinity to alpha-chymotrypsin (unknown origin) at 1 mM at pH 5.8 by 11B-NMR analysis in presence of L-fructose
Homo sapiens [13] = organism: Homo sapiens; experiment: Binding affinity to alpha-chymotrypsin (unknown origin) at 1 mM at pH 5.8 by 11B-NMR analysis in presence of L-sorbose
Homo sapiens [14] = organism: Homo sapiens; experiment: Binding affinity to alpha-chymotrypsin (unknown origin) at 1 mM at pH 5.8 by 11B-NMR analysis in presence of D-sorbose

Compound | IC50 [1] | pKa [3] | Activity (Homo sapiens [4]) | Activity (Homo sapiens [5]) | Activity (Homo sapiens [6]) | other results
OB(O)c1cc2ccccc2o1 | 14 µM | 7.3 | Active | Active | inactive | IC50 [2]: 0.22 µM
OB(O)c1cc2ccccc2s1 | 5 µM | 7.44 | Active | Active | inactive | Activity (Homo sapiens [7]): Active; Activity (Homo sapiens [8]): 78%; Activity (Homo sapiens [9]): 97%; Activity (Homo sapiens [10]): 94%; Activity (Homo sapiens [11]): 97%; Activity (Homo sapiens [12]): Active; Activity (Homo sapiens [13]): Active; Activity (Homo sapiens [14]): Active
OB(O)c1ccc2ccccc2c1 |  | 8.88 |  |  |  | 

More lines, main results first:

IC50 [1] | pKa [3] | Activity (Homo sapiens [4]) | Activity (Homo sapiens [5]) | Activity (Homo sapiens [6]) | Compound | other results
 | 10 |  |  |  | OB(O)c1ccc(O)cc1 | 
 | 10 |  |  |  | OB(O)O [BORIC ACID] | 
 | 10 |  |  |  | CCB(O)O | 
